Data from paper PMC8466754, “Esterase-Sensitive Prodrugs of a Potent Bisubstrate Inhibitor of Nicotinamide N-Methyltransferase (NNMT) Display Cellular Activity” (Biomolecules, 2021).
Blank lines part the entries; values can stand above or below the compound they belong to.

Experiments:
NNMT = molecular target: T1, NNMT (Homo sapiens, UniProt P40261); assay: 1-Methylnicotinamide (MNA) quantification in A549 cells (LC-MS); conditions: A549 lung carcinoma cells; 0.1–100 µM; 24-h treatment (Figure 4)
T1 sequence (P40261 1-264): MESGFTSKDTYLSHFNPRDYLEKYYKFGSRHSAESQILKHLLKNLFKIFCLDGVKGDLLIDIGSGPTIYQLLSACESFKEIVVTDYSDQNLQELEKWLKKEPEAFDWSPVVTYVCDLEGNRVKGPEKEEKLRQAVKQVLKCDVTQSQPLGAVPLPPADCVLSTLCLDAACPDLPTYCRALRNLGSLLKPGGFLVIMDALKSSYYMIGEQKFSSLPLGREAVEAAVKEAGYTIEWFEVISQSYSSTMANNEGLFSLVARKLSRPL
Method: Human lung adenocarcinoma line (A549, ATCC, Manassas, VA, USA) was cultured according to the provider’s indications and seeded in 6-well format. […] After incubation, effluent samples were taken and frozen (−80 °C) for further MNA measurement. Cells also were collected, centrifuged (2 × 500 G/5 min.), and frozen both for the measurement of intracellular MNA and for BCA protein assay.
The quantification of 1-methylnicotinamide (MNA), nicotinamide (NA), nicotinic acid (NicA), 1-methyl-2-pyridone-5-carboxamide (Met-2Pyr), and 1-methyl-4-pyridone-5-carboxamide (Met-4Pyr) was performed by applying ultra-high pressure liquid chromatography coupled to tandem mass spectrometry (UPLC-MS) according to the methodology previously described with minor modifications [35]. A UPLC-MS system comprised of a UPLC Ultimate 3000 (Dionex, Thermo Scientific, Waltham, MA, USA) connected to a TSQ Quantum Ultra mass spectrometer (Thermo Scientific, Waltham, MA, USA) equipped with a heated electrospray ionization interface (HESI-II Probe, Waltham, MA, USA) was used. Chromatographic separation of analytes was carried out on an Aquasil C18 analytical column (4.6 mm × 150 mm, 5 mm; Thermo Scientific, Waltham, MA, USA) under isocratic elution using acetonitrile with 0.1% of formic acid (A) and 5 mM ammonium formate in water (B) as mobile phases delivered at the flow rate of 0.8 mL/min (A:B, 80:20, v/v). The cell pellet was resuspended in 60 µL of deionized water and 50 µL of suspension was transferred to a fresh test tube. An amount of 50 µL of effluent sample was used for the measurement of extracellular MNA. The internal standard (IS) containing MNA-d3 was added to each sample (5 µL) obtaining the final concentration of 500 ng/mL. After the sample mixing, the proteins were precipitated using 100 μL of acidified acetonitrile (0.1% of formic acid), and samples were mixed (10 min), cooled at 4 °C (15 min), and finally centrifuged (15,000× g, 15 min, 4 °C). A clear supernatant was transferred to a chromatographic vial and directly injected (5 µL) into UPLC-MS system. […] The concentration of MNA was calculated based on the calibration curve plotted for the analyte as the relationship between the peak area ratios of analyte/IS to the nominal concentration of the analyte. The concentration of analytes was normalized to milligram of proteins, which was assessed using a Pierce^TM BCA Protein Assay Kit (Thermo Fisher, Waltham, MA, USA) and a Synergy4 multiplate reader (BioTek, Winooski, VT, USA). […]
Using this assay, the levels of MNA produced by NNMT in an A549 lung carcinoma cell line can be quantified by means of a sensitive LC-MS method.

[1] = test system: T24 human bladder cancer cell line; assay: MTT cell viability assay, T24; format: cell-based
Method: (§1) HSC-2 human oral cancer cell line, T24 human bladder cancer cell line, and A549 human lung cancer line were cultured in DMEM/F12 medium and supplemented with 10% fetal bovine serum and 50 μg/mL gentamicin at 37 °C in a humidified 5% CO2 incubator. For each compound tested, powder was dissolved in DMSO at 100 mM concentration. This stock solution was then diluted in culture medium to final concentration values ranging between 1 µM and 100 µM. For each sample, DMSO was kept constant at 0.1% final concentration. The day before starting treatment, cells were seeded in 96-well plates, at a density of 2000 cells/well. Cells were allowed to attach overnight and then incubated with compounds at different concentrations, or with DMSO only, for 24, 48, and 72 h. All experiments were performed in triplicate.
(§2) Cell proliferation was determined using a colorimetric assay with 3-(4,5-dimethylthiazol-2-yl)-2,5-diphenyl tetrazolium bromide (MTT). The MTT assay measures the conversion of MTT to insoluble formazan by dehydrogenase enzymes of the intact mitochondria of living cells. Cell proliferation was evaluated by measuring the conversion of the tetrazolium salt MTT to formazan crystals upon treatment with compounds or DMSO only for 24, 48, and 72 h. Briefly, cells were incubated for 2 h at 37 °C with 100 µL fresh culture medium containing 5 µL of MTT reagent (5 mg/mL in PBS). The medium was removed and 200 µL isopropanol were added. The amount of formazan crystals formed correlated directly with the number of viable cells. The reaction product was quantified by measuring the absorbance at 540 nm using a plate reader. Experiments were repeated three times. Results were expressed as a percentage of the control (the control equals 100% and corresponds to the absorbance value of each sample at time zero) and presented as mean values ± standard deviation of three independent experiments performed in triplicate.

[2] = test system: A549 human lung cancer line; assay: MTT cell viability assay, A549; format: cell-based
Method: as §1, §2

[3] = test system: HSC-2 human oral cancer cell line; assay: MTT cell viability assay, HSC-2; format: cell-based
Method: as §1, §2

[4] = Ester stability assay in buffer (RP-HPLC); format: physicochemical; conditions: for percentage of compound peak area present after 16 h of incubation, PBS: PBS buffer pH 7.4, 16 h; for percentage of compound peak area present after 16 h of incubation, PBS / percentage of compound peak area present after 16 h of incubation, Tris: room temperature, 1 mM compound; for percentage of compound peak area present after 16 h of incubation, Tris: Tris buffer pH 8.4, 16 h; for hydrolytic stability in buffer (in words): PBS pH 7.4 and Tris pH 8.4, over 16 h
Method: The prodrugs were evaluated for their stability in both PBS buffer at pH 7.4 and Tris buffer at pH 8.4. The compounds were dissolved in DMSO at a concentration of 40 mM and diluted with the respective buffer to a final concentration of 1 mM. Compounds were tested directly (t0) and subsequently every 2 h over a time period of 16 h by HPLC. Compounds were eluted from a Dr. Maisch ReproSil-Pur C18 column (4.6 × 250 mm, 10 μm particle size, Dr. Maisch, Ammerbuch-Entringen, Germany) with the following solvent system at a flow rate of 0.5 mL/min: solvent A, 0.1% trifluoroacetic acid in water/acetonitrile (95:5); solvent B, 0.1% trifluoroacetic acid in water/acetonitrile (5:95). Gradient elution was as follows: 100:0 (A/B) to 0:100 (A/B) over 8 min, 0:100 (A/B) for 1 min, then reversion back to 100:0 (A/B) over 1 min, 100:0 (A/B) for 2 min. The formation of the parent compound was evaluated and normalized by measuring the peak area at 214 nm and comparing it to the initial timepoint.
All prodrugs prepared were first tested for their inhibitory activity against NNMT using a biochemical enzymatic activity assay. […] Both these buffers and pHs have been used in the different biochemical and cellular assays described in this report. Compounds were dissolved in DMSO at a concentration of 40 mM and diluted with the respective buffer to a final concentration of 1 mM. Compound stability was then assessed by RP-HPLC directly (t0) and subsequently every 2 h over a time period of 16 h. […] Even for the rather labile methyl ester 12b, the TML group in 14b results in a decrease in hydrolysis of the methyl ester.

pig liver esterase (PLE) = assay: Esterase-mediated hydrolysis to the parent compound (RP-HPLC); format: in vitro ADME
Method: The conversion of the prodrugs to the parent compound by esterases was evaluated using pig liver esterase (PLE, 18 U/mg, Sigma-Aldrich, St. Louis, MO, USA) in PBS at pH 7.4. Compounds were dissolved in DMSO at 40 mM, diluted to a final concentration of 2 mM with PBS, and added to an equal volume of a 10 mg/mL solution of PLE in PBS (pH 7.4), resulting in final concentrations of 2.5% DMSO, 1 mM compound, and 5 mg/mL PLE. At different time-points 50 µL aliquots were taken, added to 100 µL acetonitrile to precipitate the proteins, and centrifuged for 5 min at 10,000 rpm. The supernatant was subsequently analyzed by HPLC as described in Section 2.2 above.
The next step was to establish whether compounds 12e and 14e are converted to the parent compound in the presence of an esterase.

Compound: CNc1ccc(C(N)=O)cn1 [Compound 6-MANA, 6-methylamino-nicotinamide, reference compound]
effect on cellular MNA levels (NNMT): high concentrations of both 6-MANA and GYZ-319 are required to substantially decrease the levels of MNA
effect on cell viability (MTT) ([1]; 100 µM, 24, 48 and 72 h): no effect
effect on cell viability (MTT) ([1]; 1 and 10 µM, 24, 48 and 72 h): no effects
effect on cell viability (MTT) ([2]; 100 µM, 24, 48 and 72 h): no effect
effect on cell viability (MTT) ([2]; 1 and 10 µM, 24, 48 and 72 h): no effects
effect on cell viability (MTT) ([3]; 100 µM, 24, 48 and 72 h): no effect
effect on cell viability (MTT) ([3]; 1 and 10 µM, 24, 48 and 72 h): no effects

percentage of compound peak area present after 16 h of incubation, PBS [4]: 36.97%
percentage of compound peak area present after 16 h of incubation, Tris [4]: 22.59%
Compound: COC(=O)[C@@H](N)CCN(C/C=C/c1ccc(C#N)cc1)C[C@H]1O[C@@H](n2cnc3c(N)ncnc32)[C@H](O)[C@@H]1O [Compound 12b, Methyl-(S)-2-amino-4-((((2R,3S,4R,5R)-5-(6-amino-9H-purin-9-yl)-3,4-dihydroxy-tetrahydrofuran-2-yl)methyl)((E)-3-(4-cyanophenyl)allyl)amino)butanoate]

percentage of compound peak area present after 16 h of incubation, PBS [4]: 68.36%
percentage of compound peak area present after 16 h of incubation, Tris [4]: 54.84%
Compound: CCOC(=O)[C@@H](N)CCN(C/C=C/c1ccc(C#N)cc1)C[C@H]1O[C@@H](n2cnc3c(N)ncnc32)[C@H](O)[C@@H]1O [Compound 12c, Ethyl-(S)-2-amino-4-((((2R,3S,4R,5R)-5-(6-amino-9H-purin-9-yl)-3,4-dihydroxytetrahydrofuran-2-yl)methyl)((E)-3-(4-cyanophenyl)allyl)amino)butanoate]

percentage of compound peak area present after 16 h of incubation, PBS [4]: 71.96%
percentage of compound peak area present after 16 h of incubation, Tris [4]: 61.32%
Compound: CCCOC(=O)[C@@H](N)CCN(C/C=C/c1ccc(C#N)cc1)C[C@H]1O[C@@H](n2cnc3c(N)ncnc32)[C@H](O)[C@@H]1O [Compound 12d, Propyl-(S)-2-amino-4-((((2R,3S,4R,5R)-5-(6-amino-9H-purin-9-yl)-3,4-dihydroxy-tetrahydrofuran-2-yl)methyl)((E)-3-(4-cyanophenyl)allyl)amino)butanoate]

time to full conversion to the parent compound (pig liver esterase (PLE); 5 mg/mL PLE, PBS pH 7.4, 1 mM compound): ≤ 4 h
hydrolysis in the absence of PLE (pig liver esterase (PLE); PBS pH 7.4, without PLE): no hydrolysis was observed
percentage of compound peak area present after 16 h of incubation, PBS [4]: 98.59%
hydrolytic stability in buffer (in words) [4]: most stable
percentage of compound peak area present after 16 h of incubation, Tris [4]: 93.70%
Compound: CC(C)OC(=O)[C@@H](N)CCN(C/C=C/c1ccc(C#N)cc1)C[C@H]1O[C@@H](n2cnc3c(N)ncnc32)[C@H](O)[C@@H]1O [Compound 12e, Isopropyl-(S)-2-amino-4-((((2R,3S,4R,5R)-5-(6-amino-9H-purin-9-yl)-3,4-dihydroxytetrahydrofuran-2-yl)methyl)((E)-3-(4-cyanophenyl)allyl)amino)butanoate]
effect on cellular MNA levels (NNMT): clear and significant decrease in MNA levels
effect on cell viability (MTT) ([1]; 100 µM, 24, 48 and 72 h): effect comparable to GYZ-319
effect on cell viability (MTT) ([1]; 1 and 10 µM, 24, 48 and 72 h): no effects
effect on cell viability (MTT) ([2]; 100 µM, 24, 48 and 72 h): effect comparable to GYZ-319
effect on cell viability (MTT) ([2]; 1 and 10 µM, 24, 48 and 72 h): no effects
effect on cell viability (MTT) ([3]; 100 µM, 24, 48 and 72 h): effect comparable to GYZ-319
effect on cell viability (MTT) ([3]; 1 and 10 µM, 24, 48 and 72 h): no effects

percentage of compound peak area present after 16 h of incubation, PBS [4]: 33.43%
hydrolytic stability in buffer (in words) [4]: least stable
percentage of compound peak area present after 16 h of incubation, Tris [4]: 21.60%
Compound: N#Cc1ccc(/C=C/CN(CC[C@H](N)C(=O)OCc2ccccc2)C[C@H]2O[C@@H](n3cnc4c(N)ncnc43)[C@H](O)[C@@H]2O)cc1 [Compound 12f, Benzyl-(S)-2-amino-4-((((2R,3S,4R,5R)-5-(6-amino-9H-purin-9-yl)-3,4-dihydroxy-tetrahydrofuran-2-yl)methyl)((E)-3-(4-cyanophenyl)allyl)amino)butanoate]

Compound: COC(=O)[C@H](CCN(C/C=C/c1ccc(C#N)cc1)C[C@H]1O[C@@H](n2cnc3c(N)ncnc32)[C@H](O)[C@@H]1O)NC(=O)CC(C)(C)c1c(C)cc(C)cc1OC(C)=O [Compound 14b, Methyl-(S)-2-(3-(2-acetoxy-4,6-dimethylphenyl)-3-methylbutanamido)-4-((((2R,3S,4R,5R)-5-(6-amino-9H-purin-9-yl)-3,4-dihydroxytetrahydrofuran-2-yl)methyl)((E)-3-(4-cyanophenyl)allyl)amino)butanoate]
percentage of compound peak area present after 16 h of incubation, PBS [4]: 88.08%
percentage of compound peak area present after 16 h of incubation, Tris [4]: 73.88%

Compound: CCOC(=O)[C@H](CCN(C/C=C/c1ccc(C#N)cc1)C[C@H]1O[C@@H](n2cnc3c(N)ncnc32)[C@H](O)[C@@H]1O)NC(=O)CC(C)(C)c1c(C)cc(C)cc1OC(C)=O [Compound 14c, Ethyl-(S)-2-(3-(2-acetoxy-4,6-dimethylphenyl)-3-methylbutanamido)-4-((((2R,3S,4R,5R)-5-(6-amino-9H-purin-9-yl)-3,4-dihydroxytetrahydrofuran-2-yl)methyl)((E)-3-(4-cyanophenyl)allyl)amino)butanoate]
percentage of compound peak area present after 16 h of incubation, PBS [4]: 90.44%
percentage of compound peak area present after 16 h of incubation, Tris [4]: 87.00%

Compound: CCCOC(=O)[C@H](CCN(C/C=C/c1ccc(C#N)cc1)C[C@H]1O[C@@H](n2cnc3c(N)ncnc32)[C@H](O)[C@@H]1O)NC(=O)CC(C)(C)c1c(C)cc(C)cc1OC(C)=O [Compound 14d, Propyl-(S)-2-(3-(2-acetoxy-4,6-dimethylphenyl)-3-methylbutanamido)-4-((((2R,3S,4R,5R)-5-(6-amino-9H-purin-9-yl)-3,4-dihydroxytetrahydrofuran-2-yl)methyl)((E)-3-(4-cyanophenyl)allyl)amino)butanoate]
percentage of compound peak area present after 16 h of incubation, PBS [4]: 90.30%
percentage of compound peak area present after 16 h of incubation, Tris [4]: 87.52%
